Key:
[1] = test system: normal NK cells expanded with K562-aAPC; test: percent inhibition of viability; higher = more inhibition; settings: 72 h, IL-2 2.5 ng/mL
Experimental: (§1)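 Drug sensitivity and resistance testing on K562-aAPC-expanded normal NK cells: 5 concentrations (10-fold steps over a 10,000-fold range), 72 h at 37 °C, viability by CellTiter-Glo normalised to DMSO and benzethonium chloride controls; DSS from the fitted curve.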

[2] = test system: DERL-7 (IL-2 2.5 ng/mL); test: drug sensitivity score (DSS) (DSS units); higher = more sensitive; extreme values may be limits of the assay; settings: 72 h
[3] = test system: IMC-1 (IL-2 20 ng/mL); test: as above; settings: 72 h
[4] = test system: KAI3 (IL-2 2.5 ng/mL); test: as above; settings: 72 h
[5] = test system: SNK-6 (IL-2 2.5 ng/mL); test: as above; settings: 72 h
[6] = test system: normal primary NK cells, pool 2 (3 donors) (IL-2 2.5 ng/mL); test: as above; settings: 72 h
[7] = test system: NK-92 (IL-2 2.5 ng/mL); test: as above; settings: 72 h
[8] = test system: YT (IL-2 2.5 ng/mL); test: as above; settings: 72 h
[9] = test system: normal primary NK cells, pool 1 (3 donors) (IL-2 2.5 ng/mL); test: as above; settings: 72 h
[10] = test system: NKL (IL-2 2.5 ng/mL); test: as above; settings: 72 h
[11] = test system: NK-YS (IL-2 2.5 ng/mL); test: as above; settings: 72 h
[12] = test system: normal primary NK cells, pool 3 (3 donors) (IL-2 2.5 ng/mL); test: as above; settings: 72 h
[13] = test system: normal primary NK cells, pool 1 (3 donors), resting (IL-2 0 ng/mL); test: as above; settings: 72 h
[14] = test system: KHYG-1 (IL-2 2.5 ng/mL); test: as above; settings: 72 h
[15] = test system: DERL-7 (IL-2 2.5 ng/mL); test: percent inhibition of viability; higher = more inhibition; settings: 72 h
[16] = test system: IMC-1 (IL-2 20 ng/mL); test: as above; settings: 72 h
[17] = test system: KAI3 (IL-2 2.5 ng/mL); test: as above; settings: 72 h
[18] = test system: SNK-6 (IL-2 2.5 ng/mL); test: as above; settings: 72 h
[19] = test system: normal primary NK cells, pool 2 (3 donors) (IL-2 2.5 ng/mL); test: as above; settings: 72 h
[20] = test system: NK-92 (IL-2 2.5 ng/mL); test: as above; settings: 72 h
[21] = test system: YT (IL-2 2.5 ng/mL); test: as above; settings: 72 h
[22] = test system: normal primary NK cells, pool 1 (3 donors) (IL-2 2.5 ng/mL); test: as above; settings: 72 h
[23] = test system: NKL (IL-2 2.5 ng/mL); test: as above; settings: 72 h
[24] = test system: NK-YS (IL-2 2.5 ng/mL); test: as above; settings: 72 h
[25] = test system: normal primary NK cells, pool 3 (3 donors) (IL-2 2.5 ng/mL); test: as above; settings: 72 h
[26] = test system: normal primary NK cells, pool 1 (3 donors), resting (IL-2 0 ng/mL); test: as above; settings: 72 h
[27] = test system: KHYG-1 (IL-2 2.5 ng/mL); test: as above; settings: 72 h
[28] = test system: normal NK cells expanded with K562-aAPC; test: drug sensitivity score (DSS) (DSS units); higher = more sensitive; extreme values may be limits of the assay; settings: 72 h; IL-2 2.5 ng/mL
Experimental: as §1

O=C(c1ccc(/C=C/c2n[nH]c3ccccc23)cc1)N1CCNCC1 [KW-2449] (max concentration tested 2500 nM)
percent inhibition of viability [%]
Settings | 0.25 nM | 2.5 nM | 25 nM | 250 nM | 2500 nM
[1] | 1.55 | -7.82 | -4.83 | -5.26 | 33
[15] | -3.07 | -3.42 | -0.35 | -5.82 | 52
[16] | -4.33 | -2.55 | -3.12 | -4.5 | -8.66
[17] | -7.2 | -3.33 | -4.86 | -5.15 | 12.8
[18] | 11.8 | 9.47 | 14.2 | 3.56 | 67.5
[19] | 0.9 | -1.16 | -5.56 | -9.38 | 13.4
[20] | -17.7 | -18 | -20.5 | -12.6 | 18.9
[21] | 0.95 | 1.96 | -2.99 | -1.32 | 9
[22] | 0.56 | -11.2 | -7.09 | -3.29 | 23.3
[23] | -16.7 | -15.7 | -8.73 | -17 | 8.68
[24] | -5.66 | -7.24 | -6.03 | 0.88 | 42.9
[25] | -10.8 | -6.97 | -9.8 | -18.2 | -0.01
[26] | -12.6 | 0.69 | -21.6 | -1.76 | -0.59
[27] | -4.37 | -3.8 | -7.48 | -0.63 | 63.4

Settings | drug sensitivity score
[2] | 2.35
[3] | 0.89
[4] | 0.03
[5] | 4.22
[6] | 0.03
[7] | 0.25
[8] | 0
[9] | 0.65
[10] | 0
[11] | 2.28
[12] | 0.89
[13] | 0
[14] | 3.4
[28] | 1.2

CS(=O)(=O)CCNCc1ccc(-c2ccc3ncnc(Nc4ccc(OCc5cccc(F)c5)c(Cl)c4)c3c2)o1 [Lapatinib] (max concentration tested 1000 nM)
percent inhibition of viability [%]
Settings | 0.1 nM | 1 nM | 10 nM | 100 nM | 1000 nM
[1] | -5.72 | -9.28 | -7.55 | -4.36 | -0.7
[15] | 4.2 | 1.17 | 2.53 | -0.89 | 9.64
[16] | -4.47 | -0.19 | -1 | 2.17 | 9.49
[17] | -4.84 | -7.01 | -5.48 | -1.85 | 11.8
[18] | -20.3 | -7.47 | -17 | -15.2 | -16.8
[19] | -7.46 | 8.95 | 4.77 | 1.81 | 4
[20] | -9.88 | -2.81 | 5.1 | 30.6 | 28.1
[21] | -1.2 | -2.12 | -1.08 | 6.88 | 14.2
[22] | -9.91 | 11.7 | 10.2 | 12.6 | 4.9
[23] | -3.26 | -0.98 | 3.19 | 8.28 | 14.2
[24] | -7.32 | -8.47 | -3.59 | -5.11 | 5.83
[25] | -12.2 | 9.92 | 7.91 | -3.46 | -0.3
[26] | -12 | 4 | -0.24 | 6.97 | 30.1
[27] | -0.63 | -4.12 | -1.74 | 0.27 | 9.49

Settings | drug sensitivity score
[2] | 0
[3] | 0
[4] | 0.01
[5] | 0
[6] | 0
[7] | 6.01
[8] | 0.63
[9] | 1.89
[10] | 0.4
[11] | 0
[12] | 0
[13] | 2.38
[14] | 0
[28] | 0

CNC(=O)c1cccc2cc(Oc3ccnc4cc(OCC5(N)CC5)c(OC)cc34)ccc12 [Lucitanib] (max concentration tested 10000 nM)
percent inhibition of viability [%]
Settings | 1 nM | 10 nM | 100 nM | 1000 nM | 10000 nM
[1] | -5.59 | -4.77 | -3.52 | 4.7 | 23.6
[15] | -0.32 | -4.66 | 2.4 | -2.57 | 23.4
[16] | -4.99 | 1.11 | 1.41 | 2.72 | 0.85
[17] | -0.3 | -0.75 | -0.45 | 11.7 | 49.6
[18] | -7.37 | -13.2 | -13.8 | -8.69 | 69.6
[19] | -3.78 | 2.2 | 2.46 | -3.23 | -5
[20] | -12.1 | -11.8 | 3.06 | 13.7 | 83.8
[21] | -5.87 | -7.33 | -6.32 | -2.96 | 58.7
[22] | -6.86 | 10.5 | -2.99 | 8.01 | 5.53
[23] | 1.05 | 4.31 | 4.24 | -3.6 | 3.06
[24] | -6.67 | -4.7 | -0.96 | 9.75 | 65.5
[25] | -7.6 | 0.39 | 3.76 | -6.23 | -5.45
[26] | -16.7 | 4.29 | 3.09 | 0.61 | 22.1
[27] | -3.19 | -3.91 | -0.83 | 10.4 | 70.4

Settings | drug sensitivity score
[2] | 0.68
[3] | 0
[4] | 4.47
[5] | 3.25
[6] | 0
[7] | 6.93
[8] | 2.92
[9] | 0
[10] | 0
[11] | 5.23
[12] | 0
[13] | 0.81
[14] | 5.63
[28] | 1.53
